pKi: −log10 of the molar value. Where two headings read alike, the source gives them in different places.
Legend:
GABAA α5 receptor = target: T1, GABAA α5 receptor (Rattus norvegicus, UniProt P18508+P19969); assay: GABAA α5 receptor occupancy with Ro 15-4513 tracer, hippocampus vs cerebellum; assay type: in vivo, Long Evans rats; details: i.v.
T1 construct: from tissue
Protocol: Food and water were available ad libitum.
The (100 μl) supernatant solution was diluted by […] of sterile water (pH 6.5).

aged-impaired (AI) rats = assay: Morris water maze behavioral task, ICV infusion; assay type: in vivo, rat; details: 100 μg ICV
Description: Cognitively impaired aged rats were implanted unilaterally with a cannula into the lateral ventricle. Stereotaxic coordinates were 1.0 mm posterior to bregma, 1.5 mm lateral to midline, and 3.5 mm ventral to the skull surface. After about a week of recovery, the rats were pre-trained in a water maze for 2 days (6 trials per day) to locate a submerged escape platform hidden underneath the surface of the pool, in which the escape platform location varied from day to day. No intracerebroventricular (ICY) infusion was given during pre-training.
After pre-training, rats received ICV infusion of either 100 μg 6,6 dimethyl-3-(3-hydroxypropypthio-1-(thiazol-2-yl)-6,7-dihydro-2-benzothiophen-4(5H)-one (n=6) in 5 μl DMSO or vehicle DMSO (n=5) 40 min prior to water maze training and testing. Training consisted of 8 trials per day for 2 days where the hidden escape platform remained in the same location. Rats were given 60 seconds to locate the platform with a 60 seconds inter-trial interval. The rats were given a probe test (120 seconds) 24 hr. after the end of training where the escape platform was removed. During the training, there were 4 blocks, where each block had 4 training trials.
During a test trial 24 hr. after training, the escape platform was removed. The search/swim pattern of the rats was used to measure whether the rats remember where the escape platform was located during pre-trial training in order to test for the long-term memory of the rats. In this trial, “target annulus” is a designated area 1.5 times the size of the escape platform around the area where the platform was located during pre-trial training. “Opposite annulus” is a control area of the same size as the size of the target annulus, which is located opposite to the target annulus in the pool. If the rats had good long term memory, they would tend to search in the area surrounding the location where the platform was during the pre-trial training (i.e., the “target” annulus; and not the “opposite” annulus). “Time in annulus” is the amount of time in seconds that the rat spent in the target or opposite annulus area. “Number (#) of crossings” in annulus is the number of times the rat swam across the target or opposite annulus area.

[1] = target: T2, α5β3γ2 GABAA receptors (Ltk cell membranes) (Homo sapiens, UniProt P18507+P31644); assay: Binding activity of test compounds on GABAAR: inhibition of [3H]Ro15-1788 binding
T2 construct: membranes
T2 sequence (P31644 32-462): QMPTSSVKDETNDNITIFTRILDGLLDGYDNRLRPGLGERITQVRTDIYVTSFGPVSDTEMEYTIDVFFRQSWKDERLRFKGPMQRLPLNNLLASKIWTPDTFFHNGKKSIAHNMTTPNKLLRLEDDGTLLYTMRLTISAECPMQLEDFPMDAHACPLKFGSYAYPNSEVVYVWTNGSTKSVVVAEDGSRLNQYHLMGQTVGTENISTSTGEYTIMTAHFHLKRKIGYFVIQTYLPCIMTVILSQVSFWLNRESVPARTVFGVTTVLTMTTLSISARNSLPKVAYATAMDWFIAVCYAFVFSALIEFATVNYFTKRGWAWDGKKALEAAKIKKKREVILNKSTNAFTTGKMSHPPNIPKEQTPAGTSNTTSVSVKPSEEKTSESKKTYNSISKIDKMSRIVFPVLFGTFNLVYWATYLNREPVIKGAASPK
T2 sequence (P28472 26-473 partner): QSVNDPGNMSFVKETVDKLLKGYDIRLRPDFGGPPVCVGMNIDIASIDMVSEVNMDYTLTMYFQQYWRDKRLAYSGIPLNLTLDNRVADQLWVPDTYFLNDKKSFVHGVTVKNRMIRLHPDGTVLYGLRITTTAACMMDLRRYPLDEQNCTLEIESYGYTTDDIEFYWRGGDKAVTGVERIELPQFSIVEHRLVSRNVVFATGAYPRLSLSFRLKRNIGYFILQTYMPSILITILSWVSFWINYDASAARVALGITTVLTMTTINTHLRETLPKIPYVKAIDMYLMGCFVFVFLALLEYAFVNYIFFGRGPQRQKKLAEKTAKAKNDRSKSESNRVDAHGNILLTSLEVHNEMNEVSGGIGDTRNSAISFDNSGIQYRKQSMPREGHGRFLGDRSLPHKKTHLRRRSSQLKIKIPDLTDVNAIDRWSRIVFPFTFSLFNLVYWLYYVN
T2 sequence (P18507 40-475): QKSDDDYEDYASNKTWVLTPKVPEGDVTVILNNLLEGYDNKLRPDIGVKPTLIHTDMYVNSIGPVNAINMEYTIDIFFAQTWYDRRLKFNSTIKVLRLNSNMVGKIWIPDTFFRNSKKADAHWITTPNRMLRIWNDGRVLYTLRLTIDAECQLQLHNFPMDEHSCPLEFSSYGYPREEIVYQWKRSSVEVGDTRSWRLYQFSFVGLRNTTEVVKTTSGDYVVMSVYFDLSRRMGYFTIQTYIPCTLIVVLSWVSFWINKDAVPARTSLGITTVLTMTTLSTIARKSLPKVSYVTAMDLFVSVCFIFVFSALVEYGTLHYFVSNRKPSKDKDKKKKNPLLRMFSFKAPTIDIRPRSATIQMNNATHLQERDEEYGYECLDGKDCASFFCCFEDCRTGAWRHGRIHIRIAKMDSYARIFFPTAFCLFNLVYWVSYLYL
Summary of the method: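 Membranes from dexamethasone-induced Ltk cells (α5 line: 0.5 μM, 1 day); binding with [3H]Ro15-1788 for 1 h at 4 °C in 50 mM KH2PO4, 1 mM EDTA, 0.2 M KCl, pH 7.4, 0.2 mg/ml α5 protein. Nonspecific binding defined by 10 μM diazepam; filtration, scintillation counting, triplicates.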

[2] = GABA α5 Binding Ki Values, inhibition of [3H]Ro15-1788 binding, reported as ranges

T1 sequence (P19969 32-464 limits assumed): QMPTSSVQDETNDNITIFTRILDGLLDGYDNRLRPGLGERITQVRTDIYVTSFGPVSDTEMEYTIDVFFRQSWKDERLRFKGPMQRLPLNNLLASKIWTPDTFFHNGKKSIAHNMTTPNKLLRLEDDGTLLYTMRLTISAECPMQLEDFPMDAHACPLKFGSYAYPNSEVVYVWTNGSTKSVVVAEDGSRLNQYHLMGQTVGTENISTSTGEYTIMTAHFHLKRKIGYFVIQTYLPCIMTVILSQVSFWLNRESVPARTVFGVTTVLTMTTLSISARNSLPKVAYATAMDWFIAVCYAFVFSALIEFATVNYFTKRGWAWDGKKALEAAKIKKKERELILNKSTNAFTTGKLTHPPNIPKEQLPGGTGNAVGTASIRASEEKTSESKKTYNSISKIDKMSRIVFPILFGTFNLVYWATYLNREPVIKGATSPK
T1 sequence (P18508 39-466): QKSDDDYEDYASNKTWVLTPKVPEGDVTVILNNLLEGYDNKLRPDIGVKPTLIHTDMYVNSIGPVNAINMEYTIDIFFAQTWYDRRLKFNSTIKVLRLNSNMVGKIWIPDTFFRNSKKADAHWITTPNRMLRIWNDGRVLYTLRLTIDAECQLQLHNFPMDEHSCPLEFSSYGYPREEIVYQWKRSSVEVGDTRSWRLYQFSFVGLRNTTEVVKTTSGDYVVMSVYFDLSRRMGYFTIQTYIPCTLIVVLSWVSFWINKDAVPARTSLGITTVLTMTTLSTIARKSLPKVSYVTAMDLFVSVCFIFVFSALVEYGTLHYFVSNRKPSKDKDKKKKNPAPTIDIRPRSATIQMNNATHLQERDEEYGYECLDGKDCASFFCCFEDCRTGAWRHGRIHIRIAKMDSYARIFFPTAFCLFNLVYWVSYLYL

Compound	pKi [1, 2]	also measured
CCOC(=O)c1ncn2c1Cn1c(C)nnc1-c1cc(OC)ccc1-2 [Ethyl 3-methoxy-7-methyl-9H-benzo[f]imidazo[1,5-a][1,2,4]tri]	–	Ro 15-4513 binding in hippocampus (GABAA α5 receptor; 0.01-10 mg/kg): blocked; cerebellum levels (binding) of Ro 15-4513 (GABAA α5 receptor; 0.01-10 mg/kg): did not affect
CC1(C)CC(=O)c2c(SCCCO)sc(-c3nccs3)c2C1 [6,6 dimethyl-3-(3-hydroxypropyl)thio-1-(thiazol-2-yl)-6,7-dihydro-2-benzothiophen-4(5H)-one]	–	time to find the escape platform, block 1 (beginning of training) (aged-impaired (AI) rats): about 24 seconds; time to find the escape platform, block 4 (end of training) (aged-impaired (AI) rats): about 9.6 seconds; number of crossings of target annulus compared with opposite annulus, probe test (aged-impaired (AI) rats; 24 hr. after training): more often; time in target annulus compared with opposite annulus, probe test (aged-impaired (AI) rats; 24 hr. after training): significantly more time
CCOC(=O)c1ncn2c1CN(C)C(=O)c1cc(N=[N+]=[N-])ccc1-2 [Ro 15-4513]	–	Ro 15-4513 level in hippocampus compared with cerebellum (GABAA α5 receptor; tracer 1 μg/kg, after vehicle): > 5 fold
CCOCc1nnc2n1Cc1c(-c3nc(C(C)C)no3)ncn1-c1ccc(Cl)cc1-2 [Compound 254]	> 7.00	–
Clc1ccc2c(c1)-n1nncc1Cc1c(C#Cc3ccccc3)ncn1-2 [Compound 395]	> 7.00	–
COCc1nnc2n1Cc1c(-c3nc(C)no3)ncn1-c1ccc(Br)cc1-2 [Compound 461]	> 7.00	–
COCc1nnc2n1Cc1c(C3=NC(c4ccccc4)CO3)ncn1-c1ccc(Cl)cc1-2 (stereo not shown) [Compound 242]	> 7.00	–
Cc1nnn2c1Cc1c(-c3cccnc3)ncn1-c1ccc(F)cc1-2 [Compound 140]	< 6.00	–
COCc1nnc2n1Cc1c(-c3nc(-c4ccc(F)cc4)co3)ncn1-c1ccc(Cl)cc1-2 [Compound 324]	> 7.00	–
CCc1nc(-c2ncn3c2Cc2c(Cc4ccccc4)nnn2-c2cc(OC)ccc2-3)no1 [Compound 194]	> 7.00	–
CC#Cc1ncn2c1Cc1cnnn1-c1cc(OC)ccc1-2 [Compound 410]	> 7.00	–
Cc1cc(-c2ncn3c2Cn2c(COC(C)C)nnc2-c2cc(Cl)ccc2-3)on1 [Compound 281]	6.00 to 7.00	–
COc1ccc2c(c1)-n1nnc(COc3ccccc3F)c1Cc1c(-c3noc(C)n3)ncn1-2 [Compound 181]	> 7.00	–
COCc1nnc2n1Cc1c(-c3nc(C)no3)ncn1-c1ccc(-c3ccccc3)cc1-2 [Compound 462]	> 7.00	–
COCc1nnc2n1Cc1c(-c3nc(C)no3)ncn1-c1ccc(OC(F)(F)F)cc1-2 [Compound 456]	> 7.00	–
CCOC(=O)c1ncn2c1Cn1c(Br)nnc1-c1cc(OC)ccc1-2 [Compound 106]	> 7.00	–
Clc1ccc2c(c1)-n1nncc1Cc1c(-c3nc(-c4ccccc4)co3)ncn1-2 [Compound 385]	> 7.00	–
COc1ccc2c(c1)-n1nncc1Cc1c(-c3ncco3)ncn1-2 [Compound 344]	> 7.00	–
COc1ccc2c(c1)-c1nnc(COCc3ccccc3F)n1Cc1c(-c3noc(C(C)C)n3)ncn1-2 [Compound 184]	> 7.00	–
COCc1nnc2n1Cc1c(COc3ccc(F)cc3)ncn1-c1ccc(Cl)cc1-2 [Compound 435]	–	pKi ([1]; inhibition of [3H]Ro15-1788 binding, reported as ranges): < 6.00
COCc1nnc2n1Cc1c(-c3nc(C(C)C)no3)ncn1-c1ccc(OC)cc1-2 [Compound 130]	> 7.00	–
COCc1nnc2n1Cc1c(C3=N[C@@H](c4ccccc4OC)CO3)ncn1-c1ccc(Cl)cc1-2 [Compound 331]	> 7.00	–

Compound	pKi [1, 2]	also measured
COc1ccc2c(c1)-c1nnc(COc3cccnc3)n1Cc1c(Br)ncn1-2 [Compound 235]	> 7.00	–
CCOC(=O)c1ncn2c1Cc1c(Cc3cccc(C#N)c3)nnn1-c1cc(OC)ccc1-2 [Compound 53]	> 7.00	–
COc1ccc2c(c1)-n1nncc1Cc1c(C#CCc3ccccc3)ncn1-2 [Compound 413]	> 7.00	–
COCc1nnc2n1Cc1c(-c3nc(C)no3)ncn1-c1ccc(Cl)cc1-2 [Compound 198]	> 7.00	–
C#Cc1ncn2c1Cn1c(COc3ccccc3)nnc1-c1cc(OC)ccc1-2 [Compound 236]	> 7.00	–
FC(F)c1ncn2c1Cn1c(COc3ccccc3)nnc1-c1cc(Cl)ccc1-2 [Compound 200]	6.00 to 7.00	–
COc1ccc2c(c1)-n1nnc(/C=C/c3ccccc3)c1Cc1c(C#N)ncn1-2 [Compound 262]	< 6.00	–
COCc1nnc2n1Cc1c(-c3cnco3)ncn1-c1ccc(Cl)cc1-2 [Compound 314]	6.00 to 7.00	–
COc1ccc2c(c1)-n1nncc1Cc1c(C3=N[C@@H](c4ccc(Cl)cc4)CO3)ncn1-2 [Compound 368]	> 7.00	–
Cc1nnn2c1Cc1c(C3=N[C@@H](c4ccc(F)cc4)CO3)ncn1-c1ccc(Cl)cc1-2 [Compound 379]	6.00 to 7.00	–
C#Cc1ccc2c(c1)-c1nnc(COC)n1Cc1c(-c3nc(-c4ccccc4)co3)ncn1-2 [Compound 302]	> 7.00	–
N#Cc1ncn2c1Cc1c(COc3cccc(F)c3)nnn1-c1cc(Cl)ccc1-2 [Compound 227]	> 7.00	–
Cc1ncn2c1Cc1c(C)nnn1-c1cc(F)ccc1-2 [Compound 135]	< 6.00	–
COc1ccc2c(c1)-n1nncc1Cc1c(-c3nc(-c4ccc(C(F)(F)F)cc4)co3)ncn1-2 [Compound 390]	< 6.00	–
CC(C)OCc1nnc2n1Cc1c(C3=N[C@@H](c4ccccc4)CO3)ncn1-c1ccc(Cl)cc1-2 [Compound 270]	> 7.00	–
Cc1nnn2c1Cc1c(C#N)ncn1-c1ccccc1-2 [Compound 115]	6.00 to 7.00	–
CCOCc1nnc2n1Cc1c(Br)ncn1-c1ccc(Cl)cc1-2 [Compound 216]	> 7.00	–
COCc1nnc2n1Cc1c(C3=N[C@@H](Cc4ccccc4)CO3)ncn1-c1ccc(Cl)cc1-2 [Compound 265]	6.00 to 7.00	–
Cc1ccc(S(=O)(=O)c2ncn3c2Cc2c(C)nnn2-c2cc(F)ccc2-3)cc1 [Compound 143]	6.00 to 7.00	pKi [1]: < 6.00
COc1ccc2c(c1)-n1nnc(CN3CCCCC3)c1Cc1c(C#N)ncn1-2 [Compound 251]	< 6.00	–
CCOC(=O)c1ncn2c1Cn1c(COc3ccccc3)nnc1-c1cc(F)ccc1-2 [Compound 137]	> 7.00	–
C=Cc1ncn2c1Cc1c(Cc3ccc(C)cc3)nnn1-c1cc(OC)ccc1-2 [Compound 221]	< 6.00	–
